Broadly, the IC50 is the concentration at which inhibition is half-maximal.

We go through 22 compounds from patent publication US8378117B2 (priority 2005, dated 2013).

One test concerns the target T1, CB2 receptor (Homo sapiens, UniProt P34972).
T1 construct: expressed in transfected cells
Kind of test: Binding assay for CB2 agonists or inverse agonists (SK-N-MC membranes, [3H]-CP-55,940). In short, it runs like this: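 IC50 came from percent-inhibition data over several compound concentrations, fitted by linear regression. Binding used semi-purified membranes of human CB2-transfected SK-N-MC cells, 90 min at 30 °C, pH 7.5 Tris-HCl with MgCl2, EDTA and BSA, then filtration and scintillation counting.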

A further test concerns the target T2, CB1 receptor (Homo sapiens, UniProt P21554).
T2 construct: expressed in transfected cells
As to the kind of experiment: Binding assay for CB1 agonists or inverse agonists (SK-N-MC membranes, [3H]-CP-55,940). The conditions noted are these: for inhibition at 1 µM: read-out: CB1 receptor binding percent inhibition, test concentration 1 μM (footnote 1); for CB1 receptor binding average percent inhibition: value shown is an average percent inhibition (footnote 5), concentration not given. The method, boiled down: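 Radioligand displacement: [3H]-CP-55,940 at […], 90 min at 30° C, pH 7.5 Tris buffer with 0.5 mg/mL fatty-acid-free BSA, using semi-purified membranes of human-CB1-transfected SK-N-MC cells. Bound counts collected on GF/C filters, 10 uM WIN 55,212 for non-specific; IC50 from percent inhibition over several concentrations.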

Where [1] appears, read: test concentration 0.2 μM (footnote 2), read-out: CB2 receptor binding percent inhibition.
The mark [2] stands for this setting: read-out: CB1 receptor binding percent inhibition, test concentration 0.2 μM (footnote 2).
[3] abbreviates: read-out: CB2 receptor binding percent inhibition, test concentration 0.2 μM (footnote 2).
Setting [4] is: Cannabinoid CB1 Receptor Binding IC50, calculated by linear regression from percent inhibition at various test concentrations.

Read-outs that look alike come from different tables or passages of the source.

T1 sequence (P34972 whole entry): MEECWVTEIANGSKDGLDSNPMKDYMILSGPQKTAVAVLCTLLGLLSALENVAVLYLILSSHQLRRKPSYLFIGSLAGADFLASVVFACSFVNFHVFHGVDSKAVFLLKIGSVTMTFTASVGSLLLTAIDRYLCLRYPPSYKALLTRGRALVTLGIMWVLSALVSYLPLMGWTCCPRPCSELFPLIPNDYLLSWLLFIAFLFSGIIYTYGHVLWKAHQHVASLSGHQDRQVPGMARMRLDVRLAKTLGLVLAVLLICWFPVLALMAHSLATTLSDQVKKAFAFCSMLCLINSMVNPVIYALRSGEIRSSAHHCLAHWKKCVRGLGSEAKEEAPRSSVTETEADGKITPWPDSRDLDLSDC
T2 sequence (P21554 whole entry): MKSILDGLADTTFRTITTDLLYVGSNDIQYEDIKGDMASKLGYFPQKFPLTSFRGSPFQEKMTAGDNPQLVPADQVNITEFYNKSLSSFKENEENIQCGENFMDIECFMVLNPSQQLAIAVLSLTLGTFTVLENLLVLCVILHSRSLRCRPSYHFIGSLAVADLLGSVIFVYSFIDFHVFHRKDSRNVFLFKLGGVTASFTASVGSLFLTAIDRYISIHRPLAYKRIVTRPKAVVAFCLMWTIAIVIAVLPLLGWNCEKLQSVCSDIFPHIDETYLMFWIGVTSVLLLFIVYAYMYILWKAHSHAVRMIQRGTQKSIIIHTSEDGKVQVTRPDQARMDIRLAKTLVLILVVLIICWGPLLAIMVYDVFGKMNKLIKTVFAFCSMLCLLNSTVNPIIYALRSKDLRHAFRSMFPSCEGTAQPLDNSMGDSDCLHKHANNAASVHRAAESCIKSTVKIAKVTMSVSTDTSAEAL

For the compound `O=C(N[C@@H]1c2ccccc2C[C@@H]1O)c1nn(-c2ccc(F)cc2F)c2c1CCCCC2Cc1cccc(F)c1` (stereo partly drawn) [Cpd 100, 1-(2,4-difluoro-phenyl)-8-(3-fluoro-benzyl)-1,4,5,6,7,8-hexahydro-cycloheptapyrazole-3-carboxylic acid [(1R,2S)-2-hydroxy-indan-1-yl]-amide], the “CB2 receptor binding percent inhibition” value on CB2 receptor (test concentration not stated) came to 9%. The inhibition at 1 µM at CB1 receptor came to 31%.

As for `O=C(NC1CC1)c1nn(C2CCCCC2)c2c1CCCCC2Cc1cccc(Cl)c1` (stereo not drawn) [Cpd 32, 8-(3-chloro-benzyl)-1-cyclohexyl-1,4,5,6,7,8-hexahydro-cycloheptapyrazole-3-carboxylic acid cyclopropylamide], the “CB2 receptor binding percent inhibition” value on CB2 receptor (test concentration not stated) was 0%. In addition, the inhibition at 1 µM on CB1 receptor is 0%.

Consider `O=C(c1nn(C2CCCCC2)c2c1CCCCC2Cc1ccc(F)cc1)N1CCN(c2ccccc2)CC1` (stereo not drawn) [Cpd 60, [1-cyclohexyl-8-(4-fluoro-benzyl)-1,4,5,6,7,8-hexahydro-cycloheptapyrazol-3-yl]-(4-phenyl-piperazin-1-yl)-methanone], for which the “CB2 receptor binding percent inhibition” value on CB2 receptor (test concentration not stated) was determined as 38%. Further, on CB1 receptor, the inhibition at 1 µM was 38%.

In the case of `NS(=O)(=O)c1ccc(NC(=O)c2nn(-c3ccc(Cl)cc3Cl)c3c2CCCC/C3=C\c2ccc(Cl)cc2)cc1` [Cpd 154, (8E)-8-(4-chloro-benzylidene)-1-(2,4-dichloro-phenyl)-1,4,5,6,7,8-hexahydro-cycloheptapyrazole-3-carboxylic acid (4-sulfamoyl-phenyl)-amide], the values for the inhibition at 0.2 µM on CB2 receptor (setting [1]) and on CB1 receptor (setting [2]) were 7% and 33%, respectively.

With `O=C(NC1CCC1)c1nn(C2CCCCC2)c2c1CCCCC2Cc1cccc(F)c1` (stereo not drawn) [Cpd 43, 1-cyclohexyl-8-(3-fluoro-benzyl)-1,4,5,6,7,8-hexahydro-cycloheptapyrazole-3-carboxylic acid cyclobutylamide], the “CB2 receptor binding percent inhibition” value at CB2 receptor (test concentration not stated) amounted to 42%. At CB1 receptor, the inhibition at 1 µM is 14%.

Turning to `O=C(N[C@H](CCl)c1ccccc1)c1nn(-c2ccc(F)cc2F)c2c1CCCCC2Cc1cccc(F)c1` (stereo partly drawn) [Cpd 169, 1-(2,4-difluoro-phenyl)-8-(3-fluoro-benzyl)-1,4,5,6,7,8-hexahydro-cycloheptapyrazole-3-carboxylic acid [(1S)-2-chloro-1-phenyl-ethyl]-amide], the inhibition at 0.2 µM on CB2 receptor (setting [1]) was 14%; on CB1 receptor (setting [2]), 24%.

Turning to `O=C(N[C@H](CO)c1ccccc1)c1nn(-c2ccc(Cl)cc2Cl)c2c1CCCC[C@H]2Cc1cccc(Cl)c1` [Cpd 162, (8S)-8-(3-chloro-benzyl)-1-(2,4-dichloro-phenyl)-1,4,5,6,7,8-hexahydro-cycloheptapyrazole-3-carboxylic acid [(1S)-2-hydroxy-1-phenyl-ethyl]-amide], the inhibition at 0.2 µM on CB2 receptor (setting [1]) is 5%; at CB1 receptor (setting [2]), 16%.

For the compound `C[C@@H](NC(=O)c1nn(-c2ccc(F)cc2F)c2c1CCCCC2Cc1cccc(F)c1)c1ccccc1` (stereo partly drawn) [Cpd 173, 1-(2,4-difluoro-phenyl)-8-(3-fluoro-benzyl)-1,4,5,6,7,8-hexahydro-cycloheptapyrazole-3-carboxylic acid [(1R)-1-phenyl-ethyl]-amide], the inhibition at 0.2 µM at CB2 receptor (setting [1]) came to 19%; at CB1 receptor (setting [2]), 32%.

As for `CC12CCC(C1)C(C)(C)[C@H]2NC(=O)c1nn(C2CCCCC2)c2c1CCCCC2Cc1cccc(Cl)c1` (stereo partly drawn) [Cpd 4, 8-(3-chloro-benzyl)-1-cyclohexyl-1,4,5,6,7,8-hexahydro-cycloheptapyrazole-3-carboxylic acid [(2S)-1,3,3-trimethyl-bicyclo[2.2.1]hept-2-yl]-amide], on CB2 receptor (test concentration not stated), the “CB2 receptor binding percent inhibition” value came to 36%. Besides, the inhibition at 1 µM at CB1 receptor came to 51%.

Take `O=C(N[C@H](CO)Cc1ccccc1)c1n[nH]c2c1CCCCC2Cc1cccc(Cl)c1` (stereo partly drawn) [Cpd 166, 8-(3-chloro-benzyl)-1,4,5,6,7,8-hexahydro-cycloheptapyrazole-3-carboxylic acid [(1S)-1-benzyl-2-hydroxy-ethyl]-amide]: the inhibition at 0.2 µM is 75% at CB2 receptor (setting [3]) and 24% at CB1 receptor (setting [2]).

Regarding `C[C@H](NC(=O)c1nn(-c2ccc(Cl)cc2Cl)c2c1CCCCC2Cc1ccc(Cl)cc1)c1ccccc1` (stereo partly drawn) [Cpd 76, 8-(4-chloro-benzyl)-1-(2,4-dichloro-phenyl)-1,4,5,6,7,8-hexahydro-cycloheptapyrazole-3-carboxylic acid [(1S)-1-phenyl-ethyl]-amide], the “CB2 receptor binding percent inhibition” value on CB2 receptor (test concentration not stated) turned out to be 38%. Moreover, the “CB1 receptor binding average percent inhibition” value on CB1 receptor is reported as “^(5)44%”.

With `O=C(NC1CCC1)c1nn(-c2ccc(Cl)cc2Cl)c2c1CCCCC2Cc1cccc(Cl)c1` (stereo not drawn) [Cpd 24, 8-(3-chloro-benzyl)-1-(2,4-dichloro-phenyl)-1,4,5,6,7,8-hexahydro-cycloheptapyrazole-3-carboxylic acid cyclobutylamide], the “CB2 receptor binding percent inhibition” value at CB2 receptor (test concentration not stated) was determined as 0%. Moreover, the inhibition at 1 µM on CB1 receptor is 28%.

For `O=C(NC1C2CC3CC(C2)CC1C3)c1nn(C2CCCCC2)c2c1CCCCC2Cc1ccc(Cl)cc1` (stereo not drawn) [Cpd 16, 8-(4-chloro-benzyl)-1-cyclohexyl-1,4,5,6,7,8-hexahydro-cycloheptapyrazole-3-carboxylic acid adamantan-2-ylamide], the “CB2 receptor binding percent inhibition” value on CB2 receptor (test concentration not stated) is given as 68%. Further, the inhibition at 1 µM on CB1 receptor turned out to be 21%.

Regarding `O=C(N[C@@H](CO)Cc1ccccc1)c1nn(-c2nccc(C(F)(F)F)n2)c2c1CCCCC2Cc1cccc(Cl)c1` (stereo partly drawn) [Cpd 186, 8-(3-chloro-benzyl)-1-(4-trifluoromethyl-pyrimidin-2-yl)-1,4,5,6,7,8-hexahydro-cycloheptapyrazole-3-carboxylic acid [(1R)-1-benzyl-2-hydroxy-ethyl]-amide], the inhibition at 0.2 µM turned out to be 58% on CB2 receptor (setting [1]) and 12% at CB1 receptor (setting [2]).

For `O=C(NC1CC1)c1nn(C2CCCCC2)c2c1CCCCC2Cc1cccc(F)c1` (stereo not drawn) [Cpd 49, 1-cyclohexyl-8-(3-fluoro-benzyl)-1,4,5,6,7,8-hexahydro-cycloheptapyrazole-3-carboxylic acid cyclopropylamide], at CB2 receptor (test concentration not stated), the “CB2 receptor binding percent inhibition” value was 9%. Also, the inhibition at 1 µM at CB1 receptor is 33%.

Turning to `C[C@@H](NC(=O)c1nn(-c2cc(Cl)ccc2Cl)c2c1CCCC/C2=C\c1ccc(Cl)cc1)c1ccccc1` [Cpd 195, (8E)-8-(4-chloro-benzylidene)-1-(2,5-dichloro-phenyl)-1,4,5,6,7,8-hexahydro-cycloheptapyrazole-3-carboxylic acid [(1R)-1-phenyl-ethyl]-amide], the inhibition at 0.2 µM on CB2 receptor (setting [3]) is 37%; at CB1 receptor (read-out: CB1 receptor binding percent inhibition), 63%.

Turning to `C[C@H](NC(=O)c1nn(-c2ccc(Cl)cc2Cl)c2c1CCCC/C2=C\c1ccc(Cl)cc1)c1ccccc1` [Cpd 139, (8E)-8-(4-chloro-benzylidene)-1-(2,4-dichloro-phenyl)-1,4,5,6,7,8-hexahydro-cycloheptapyrazole-3-carboxylic acid [(1S)-1-phenyl-ethyl]-amide], the inhibition at 0.2 µM on CB2 receptor (setting [3]) is 30%; at CB1 receptor (setting [2]), 72%. Further, the IC50 at CB1 receptor (setting [4]) is 0.05 µM.

Take `C[C@@H](NC(=O)c1n[nH]c2c1CCCC/C2=C\c1ccc(Cl)cc1)C1CCCCC1` [Cpd 140, (8E)-8-(4-chloro-benzylidene)-1,4,5,6,7,8-hexahydro-cycloheptapyrazole-3-carboxylic acid [(1R)-1-cyclohexyl-ethyl]-amide]: the “CB2 receptor binding percent inhibition” value at CB2 receptor (test concentration 0.2 μM (footnote 2)) is given as “^(2)100%”. Further, the IC50 at CB1 receptor (setting [4]) was 0.006 µM. Moreover, the inhibition at 0.2 µM at CB1 receptor (setting [2]) is 97%.

As to `O=C(NCc1ccccc1)c1nn(C2CCCCC2)c2c1CCCCC2Cc1ccc(F)cc1` (stereo not drawn) [Cpd 61, 1-cyclohexyl-8-(4-fluoro-benzyl)-1,4,5,6,7,8-hexahydro-cycloheptapyrazole-3-carboxylic acid benzylamide], on CB2 receptor (test concentration not stated), the “CB2 receptor binding percent inhibition” value is reported as 71%. Moreover, the inhibition at 1 µM on CB1 receptor stood at 36%.

Take `COC(=O)[C@@H](Cc1ccc(O)cc1)NC(=O)c1nn(C2CCCCC2)c2c1CCCCC2Cc1cccc(F)c1` (stereo partly drawn) [Cpd 82, (2R)-2-{[1-cyclohexyl-8-(3-fluoro-benzyl)-1,4,5,6,7,8-hexahydro-cycloheptapyrazole-3-carbonyl]-amino}-3-(4-hydroxy-phenyl)-propionic acid methyl ester]: the IC50 at CB2 receptor (Cannabinoid CB2 Receptor Binding IC50, calculated by linear regression from percent inhibition at various test concentrations) was 0.06 µM; at CB1 receptor (calculated by linear regression from percent inhibition at various test concentrations, read-out: Cannabinoid CB1 Receptor Binding IC50), 1 µM. For the same compound, at CB2 receptor (value shown is an average percent inhibition (footnote 5), concentration not given), the “CB2 receptor binding average percent inhibition” value is 88%. Besides, the “CB1 receptor binding average percent inhibition” value on CB1 receptor is reported as 46%.

With `O=C(NN1CCCCC1)c1nn(-c2ccccc2Cl)c2c1CCCC/C2=C\c1ccc(Cl)cc1` [Cpd 193, (8E)-8-(4-chloro-benzylidene)-1-(2-chloro-phenyl)-1,4,5,6,7,8-hexahydro-cycloheptapyrazole-3-carboxylic acid piperidin-1-ylamide], the inhibition at 0.2 µM on CB2 receptor (setting [1]) is 16%; on CB1 receptor (setting [2]) it was 43%.

Take `CC12CCC(C1)C(C)(C)[C@H]2NC(=O)c1nn(-c2ccc(Cl)cc2Cl)c2c1CCCCC2Cc1ccc(Cl)cc1` (stereo partly drawn) [Cpd 14, 8-(4-chloro-benzyl)-1-(2,4-dichloro-phenyl)-1,4,5,6,7,8-hexahydro-cycloheptapyrazole-3-carboxylic acid [(2S)-1,3,3-trimethyl-bicyclo[2.2.1]hept-2-yl]-amide]: the “CB2 receptor binding percent inhibition” value at CB2 receptor (test concentration not stated) amounted to 7%. Besides, on CB1 receptor, the inhibition at 1 µM amounted to 29%.
